Results published in ChEMBL document CHEMBL1130779, “Synthesis and pharmacological activity of the stereoisomers of GP-88, a propafenone-type modulator of multidrug resistance” (Bioorg Med Chem Lett, 1998).

Each compound was assayed on CCRF-CEM/VCR-1000 (assay: MDR-modulating activity as a measure to inhibit P-glycoprotein (PGP) mediated transmembrane transport in human T-lymphoblast cell line CEM vcr 1000 using the daunomycin efflux assay).
Type: functional, cell-based

EC50	SMILES
370 nM	CCCNC[C@H](O)COc1ccccc1C(=O)CCc1ccccc1
780 nM	C[C@@H](O)COc1ccccc1[C@@H](C)O
580 nM	C[C@H](O)c1ccccc1OC[C@@H](C)O
260 nM	CCCNC[C@@H](O)COc1ccccc1C(=O)CCc1ccccc1
1400 nM	C[C@H](O)COc1ccccc1[C@@H](C)O
1560 nM	C[C@H](O)COc1ccccc1[C@H](C)O
